No end group written: not given here.
Tested on: MAb-1H11
Assay: ELISA of peptides competing against plated-out P1, or plated out as BSA conjugates, for MAb-1H11 binding
Set-up: species or system mouse
Details: for recognition by MAb-1H11: ELISA, free peptides competing against plated-out P1, or conjugated to BSA and plated out; for competitive binding with MAb-1H11 (FIG. 9): absorbance at 450 nm of detectable marker bound to plated-out P1 vs concentration of free peptide; for recognition of free cross-linking amino acids by MAb-1H11: made by acid hydrolysis from bone collagen or as present naturally in urine

| Molecule | recognition by MAb-1H11 | competitive binding with MAb-1H11 (FIG. 9) | recognition of free cross-linking amino acids by MAb-1H11 |
| --- | --- | --- | --- |
| QYDGKGVGC [SEQ ID NO:1] | not recognized | little if any significant competitive binding |  |
| NC(CCCC[n+]1cc(O)c(CC(N)C(=O)O)c(CCC(N)C(=O)O)c1)C(=O)O (stereo not drawn) [LP, lysyl pyridinoline, reference compound] |  |  | not recognized |
| NC(CCc1c[n+](CC(O)CCC(N)C(=O)O)cc(O)c1CC(N)C(=O)O)C(=O)O (stereo not drawn) [HP, hydroxylysyl pyridinoline, reference compound] |  |  | not recognized |
| YDEKSTGGC [SEQ ID NO:2] | not recognized | little if any significant competitive binding |  |
